The record followed here is patent publication US10065970B2 (Genentech, Inc., priority 2015, dated 2018).

SMILES strings stand for the structures.

The target in one experiment is PI3Kα (alpha) (Homo sapiens (Human), UniProt P42336). In words: p110α (alpha) PI3K Binding Assay (ADP-Glo lipid kinase reaction). The settings on record: PI3K alpha 0.2 nM, ATP 40 μM, PIP2:3PS 50 μM, 120 min, room temperature; Ki by Morrison Equation; read-out: PI3Kα-(alpha) ATP (Ki) micromolar. Format: biochemical. As to the method: The ability of a compound of the invention to act as an inhibitor of PI3Kα was determined using the methods of Example 901.
Sequence of PI3Kα (alpha) (P42336 whole entry): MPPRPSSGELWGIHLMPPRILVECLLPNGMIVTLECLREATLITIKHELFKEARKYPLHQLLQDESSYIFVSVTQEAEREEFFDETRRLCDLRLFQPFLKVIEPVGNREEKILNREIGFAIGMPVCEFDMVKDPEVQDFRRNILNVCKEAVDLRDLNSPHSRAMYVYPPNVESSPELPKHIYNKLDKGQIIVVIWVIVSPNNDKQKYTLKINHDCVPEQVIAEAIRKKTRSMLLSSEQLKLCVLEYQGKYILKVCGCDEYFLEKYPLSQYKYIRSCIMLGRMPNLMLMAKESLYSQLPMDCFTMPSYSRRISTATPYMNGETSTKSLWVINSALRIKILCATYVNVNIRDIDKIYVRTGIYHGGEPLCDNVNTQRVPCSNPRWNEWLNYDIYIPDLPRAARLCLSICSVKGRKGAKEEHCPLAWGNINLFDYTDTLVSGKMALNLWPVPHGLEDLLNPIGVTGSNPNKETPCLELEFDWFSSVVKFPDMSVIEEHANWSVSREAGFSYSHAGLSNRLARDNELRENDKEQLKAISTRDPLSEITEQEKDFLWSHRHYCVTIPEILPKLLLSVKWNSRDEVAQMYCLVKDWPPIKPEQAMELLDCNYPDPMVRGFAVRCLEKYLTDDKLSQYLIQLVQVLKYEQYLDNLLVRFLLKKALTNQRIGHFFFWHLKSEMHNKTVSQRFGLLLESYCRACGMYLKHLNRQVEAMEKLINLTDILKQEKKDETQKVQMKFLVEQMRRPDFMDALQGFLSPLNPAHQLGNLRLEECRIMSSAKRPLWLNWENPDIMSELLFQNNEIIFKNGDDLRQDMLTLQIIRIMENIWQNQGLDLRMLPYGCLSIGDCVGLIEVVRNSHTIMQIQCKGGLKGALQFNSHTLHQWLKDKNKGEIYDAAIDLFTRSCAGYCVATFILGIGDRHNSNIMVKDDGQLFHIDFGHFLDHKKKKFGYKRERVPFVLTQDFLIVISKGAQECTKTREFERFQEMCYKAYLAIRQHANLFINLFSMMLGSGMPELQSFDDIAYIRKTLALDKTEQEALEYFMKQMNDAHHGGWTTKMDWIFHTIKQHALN
Sequence of PI3Kα (alpha) (P27986 whole entry partner): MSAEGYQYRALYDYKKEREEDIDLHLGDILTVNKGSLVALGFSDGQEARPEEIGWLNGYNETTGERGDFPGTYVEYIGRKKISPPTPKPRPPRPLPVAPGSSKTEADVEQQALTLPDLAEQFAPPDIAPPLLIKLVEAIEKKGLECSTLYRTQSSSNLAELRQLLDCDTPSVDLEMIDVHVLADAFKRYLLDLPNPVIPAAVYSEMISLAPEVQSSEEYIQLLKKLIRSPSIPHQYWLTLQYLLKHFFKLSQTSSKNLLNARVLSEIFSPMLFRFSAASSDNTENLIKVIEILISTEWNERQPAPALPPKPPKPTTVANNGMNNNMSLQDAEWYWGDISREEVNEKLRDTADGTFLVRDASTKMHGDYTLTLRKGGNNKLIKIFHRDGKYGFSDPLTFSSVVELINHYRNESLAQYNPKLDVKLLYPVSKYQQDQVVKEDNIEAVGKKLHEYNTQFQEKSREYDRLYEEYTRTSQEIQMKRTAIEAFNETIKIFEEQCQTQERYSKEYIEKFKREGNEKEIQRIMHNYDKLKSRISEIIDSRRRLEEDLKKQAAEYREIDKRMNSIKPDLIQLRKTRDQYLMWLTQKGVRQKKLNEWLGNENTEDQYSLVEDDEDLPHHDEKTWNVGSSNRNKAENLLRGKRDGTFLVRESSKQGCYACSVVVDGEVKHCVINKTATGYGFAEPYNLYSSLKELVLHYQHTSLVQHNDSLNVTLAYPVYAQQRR
PI3K Binding assays are intended for determining the biochemical potency of small molecule PI3K inhibitors. The PI3K lipid kinase reaction is performed in the presence of PIP2:3PS lipid substrate (Promega #V1792) and ATP. Following the termination if the kinase reaction, turnover of ATP to ADP by the phosphorylation of the lipid substrate is detected using the Promega ADP-Glo™ (Promega #V1792) assay. Reactions are carried out using the following conditions:
After 120 minutes of reaction time, the kinase reaction is terminated. Any ATP remaining after the reaction is depleted, leaving only ADP. Then the Kinase Detection Reagent is added to convert ADP to ATP, which is used in a coupled luciferin/luciferase reaction. The luminescent output is measured and is correlated with kinase activity.
All reactions are carried out at room temperature. A 3 μl mixture (1:1) of enzyme/lipid substrate solution is added to a 384 well white assay plate (Perkin Elmer #6007299) containing 50 nl of test compound or DMSO only for untreated controls. The reaction is started by the addition of 2 μl ATP/MgCl2. The kinase reaction buffer contains 50 mM HEPES, 50 mM NaCl, 3 mM MgCl2, 0.01% BSA, 1% DMSO, and enzyme and substrate concentrations as indicated in the above table. The reaction is stopped by the addition of 10 μL ADP-Glo reagent. Plates are read in a Perkin Elmer Envision system using luminescence mode. 10 point dose response curves are generated for each test compound. Ki values for each compound are determined using the Morrison Equation.
Take `Nc1nc2cc(-c3nc4cc(Br)cc5c4n3CCCO5)ccc2o1` [Example 101, 5-(4-Bromo-8,9-dihydro-7H-6-oxa-2,9a-diazabenzo[cd]azulen-1-yl)benzo [d]oxazol 2-amine]: the inhibition constant Ki came to 7.75 nM.

Consider `CC[C@H](Oc1cc2c3c(c1)nc(-c1cc(F)c(-c4ncn[nH]4)cc1F)n3CCCCO2)C(N)=O` [Example 295, (S)-2-((1-(2,5-Difluoro-4-(1H-1,2,4-triazol-5-yl)phenyl)-7,8,9,10-tetrahydro-6-oxa-2,10a-diazacycloocta[cd]inden-4-yl)oxy)butanamide], for which the Ki was found to be 0.053 nM.

As to `NC(=O)[C@@H](Nc1cc2c3c(c1)nc(-c1ccc(F)cc1F)n3CCCO2)C1CC1` [Example 145, (S)-2-Cyclopropyl-2-((1-(2,4-difluorophenyl)-8,9-dihydro-7H-6-oxa-2,9a-diazabenzo[cd]azulen-4-yl)amino)acetamide], the inhibitory constant (Ki) was 382 nM.

Turning to `C[C@H](Oc1cc2c3c(c1)nc(-c1cc(F)c4sc(N)nc4c1)n3CCCCO2)C(N)=O` [Example 285, (S)-2-((1-(2-Amino-7-fluorobenzo[d]thiazol-5-yl)-7,8,9,10-tetrahydro-6-oxa-2,10a-diazacycloocta[cd]inden-4-yl)oxy)propanamide], the inhibition constant Ki worked out at 0.062 nM.

As to `NC(=O)c1cc(-c2nc3cc(N[C@H](C(N)=O)C4CC4)cc4c3n2CCCO4)ccc1F` [Example 157, (S)-5-(4-((2-Amino-1-cyclopropyl-2-oxoethyl)amino)-8,9-dihydro-7H-6-oxa-2,9a-diazabenzo[cd]azulen-1-yl)-2-fluorobenzamide], the Ki worked out at 16.5 nM.

For `NC(=O)[C@@H](Nc1cc2c3c(c1)nc(N1CCC(CO)CC1)n3CCCO2)C1CC1` [Example 126, (S)-2-Cyclopropyl-2-[1-(4-hydroxymethylpiperidin-1-yl)-8,9-dihydro-7H-6-oxa-2,9a-diazabenzo[cd]azulen-4-ylamino]acetamide], the Ki was determined as 678 nM.

In the case of `COc1ccc(-c2nc3cc(N[C@H](C(N)=O)C4CC4)cc4c3n2CCCO4)c(F)c1` [Example 144, (S)-2-Cyclopropyl-2-((1-(2-fluoro-4-methoxyphenyl)-8,9-dihydro-7H-6-oxa-2,9a-diazabenzo[cd]azulen-4-yl)amino)acetamide], the Ki turned out to be 340 nM.

Turning to `CC[C@@H](C(N)=O)n1cc(-c2cc3c4c(c2)nc(-c2ccc5oc(N)nc5c2)n4CCCO3)cn1` [Example 217, (S)-2-(4-(1-(2-Aminobenzo[d]oxazol-5-yl)-8,9-dihydro-7H-6-oxa-2,9a-diazabenzo[cd]azulen-4-yl)-1H-pyrazol-1-yl)butanamide], the Ki came to 0.298 nM.

`COc1ncc(-c2nc3cc(N[C@H](C(N)=O)C4CC4)cc4c3n2CCCO4)cn1` [Example 128, (S)-2-cyclopropyl-2-((1-(2-methoxypyrimidin-5-yl)-8,9-dihydro-7H-6-oxa-2,9a-diazabenzo[cd]azulen-4-yl)amino)acetamide]: the Ki worked out at 73.5 nM.

As to `C[C@@H]1Cn2c(-c3ccc4oc(N)nc4c3)nc3cc(N[C@H](C(N)=O)C4CC4)cc(c32)O1` [Example 238, (S)-2-(((R)-2-(2-Aminobenzo[d]oxazol-5-yl)-4-methyl-3,4-dihydro-5-oxa-1,2a-diazaacenaphthylen-7-yl)amino)-2-cyclopropylacetamide], the Ki came to 0.045 nM.

Consider `NC(=O)[C@@H](Nc1cc2c3c(c1)nc(-c1ccncc1)n3CCCO2)C1CC1` [Example 165, (S)-2-Cyclopropyl-2-((1-(pyridin-4-yl)-8,9-dihydro-7H-6-oxa-2,9a-diazabenzo[cd]azulen-4-yl)amino)acetamide], for which the Ki was 108 nM.

Take `CCc1cc(-c2nc3cc(N4CCC[C@H]4C(N)=O)cc4c3n2CCCO4)cc2nc(N)oc12` [Example 224, (S)-1-(1-(2-Amino-7-ethylbenzo[d]oxazol-5-yl)-8,9-dihydro-7H-6-oxa-2,9a-diazabenzo[cd]azulen-4-yl)pyrrolidine-2-carb oxamide]: the Ki turned out to be 1.62 nM.

As to `NC(=O)[C@@H]1CCCN1c1cc2c3c(c1)nc(-c1ccc4[nH]cnc4c1)n3CCCO2` [Example 199, (S)-1-(1-(1H-Benzo[d]imidazol-5-yl)-8,9-dihydro-7H-6-oxa-2,9a-diazabenzo[cd]azulen-4-yl)pyrrolidine-2-carboxamide], the inhibition constant (Ki) stood at 33.2 nM.

On to `COC[C@H](Oc1cc2c3c(c1)nc(-c1ccc4nc(N)sc4n1)n3CCCCO2)C(N)=O` (single isomer, unassigned) [Example 315], for which the inhibition constant (Ki) is under 0.02 nM.

Consider `NC(=O)[C@@H]1CCCN1c1cc2c3c(c1)nc(-c1ccc(-c4nc[nH]n4)c(Cl)c1)n3CCCO2` [Example 222, (S)-1-(1-(3-Chloro-4-(1H-1,2,4-triazol-3-yl)phenyl)-8,9-dihydro-7H-6-oxa-2,9a-diazabenzo[cd]azulen-4-yl)pyrrolidine-2-carb oxamide], for which the inhibition constant (Ki) was 0.261 nM.

Consider `NC(=O)[C@@H](Nc1cc2c3c(c1)nc(-c1ccc4[nH]ncc4c1)n3CCCO2)C1CC1` [Example 133, (S)-2-((1-(1H-Indazol-5-yl)-8,9-dihydro-7H-6-oxa-2,9a-diazabenzo[cd]azulen-4-yl)amino)-2-cyclopropylacetamide], for which the inhibition constant Ki amounted to 43.4 nM.

With `COc1cnc2cc(-c3nc4cc(N[C@H](C(N)=O)C5CC5)cc5c4n3CCCO5)ccc2n1` [Example 173, (S)-2-Cyclopropyl-2-((1-(2-methoxyquinoxalin-6-yl)-8,9-dihydro-7H-6-oxa-2,9a-diazabenzo[cd]azulen-4-yl)amino)acetamide], the Ki was 46.5 nM.

As to `C[C@H](Nc1cc2c3c(c1)nc(N1CCC[C@@H](CO)C1)n3CCCO2)C(N)=O` [Example 139, (S)-2-[1-((R)-3-Hydroxymethylpiperidin-1-yl)-8,9-dihydro-7H-6-oxa-2,9a-diazabenzo[cd]azulen-4-ylamino]propionamide], the Ki turned out to be 288 nM.

Consider `NC(=O)[C@@H]1CCCN1c1cc2c3c(c1)nc(-c1ccc(-c4cc[nH]n4)cc1)n3CCCO2` [Example 229, (S)-1-(1-(4-(1H-Pyrazol-3-yl)phenyl)-8,9-dihydro-7H-6-oxa-2,9a-diazabenzo[cd]azulen-4-yl)pyrrolidine-2-carboxamide], for which the Ki was 6.88 nM.

Consider `NC(=O)[C@@H]1CCCN1c1cc2c3c(c1)nc(-c1ccc(-c4nc[nH]n4)cn1)n3CCCO2` [Example 226, (S)-1-(1-(5-(1H-1,2,4-Triazol-3-yl)pyridin-2-yl)-8,9-dihydro-7H-6-oxa-2,9a-diazabenzo[cd]azulen-4-yl)pyrrolidine-2-carb oxamide], for which the Ki was found to be 0.393 nM.

For `CS(=O)(=O)c1cc(-c2nc3cc(N[C@H](C(N)=O)C4CC4)cc4c3n2CCCO4)ccn1` [Example 159, (S)-2-Cyclopropyl-2-((1-(2-(methylsulfonyl)pyridin-4-yl)-8,9-dihydro-7H-6-oxa-2,9a-diazabenzo[cd]azulen-4-yl)amino)acetamide], the inhibition constant Ki is 87.2 nM.

The same experiment, now with this note: read-out: PI3Kα-(alpha) ATP (Ki) micromolar.
Turning to `NC(=O)[C@@H]1CCCN1c1cc2c3c(nc(-c4ccc5oc(N)nc5c4)n3CCCCO2)c1F` [Example 247, (S)-1-(1-(2-Aminobenzo[d]oxazol-5-yl)-3-fluoro-7,8,9,10-tetrahydro-6-oxa-2,10a-diazacycloocta[cd]inden-4-yl)pyrrolidine-2-carboxamide], the Ki was 0.024 nM.

Turning to `CC[C@H](C(N)=O)n1cc(-c2cc3c4c(c2)nc(-c2ccc5oc(N)nc5n2)n4CCCO3)cn1` (single isomer, unassigned) [Example 312], the inhibition constant (Ki) is 0.039 nM.

As usually defined, the Ki is the dissociation constant of the complex between target and ligand, obtained from inhibition or displacement.
